# Reference: patent US12005039B2, “Methods and compositions relating to lipokines for treating metabolic disorders” (Joslin Diabetes Center, Inc., priority 2018, dated 2024)
# Tests used:
# skeletal muscle = assay: In vivo bioluminescent fatty acid uptake in skeletal muscle (FFA-SS-Luc); conditions: ACTA1Cre+/- Rosa(stop)Luc+/- mice
# Procedure: (§1) For experiments measuring in vivo bioluminescent fatty acid uptake in skeletal muscle, ACTA1cre^+/− mice (Stock no. 006139) were bred with Rosa(stop)Luc^+/+ (Stock no. 005125) (Jackson Laboratory). Experiments measuring skeletal muscle glucose uptake in isolated skeletal muscle glucose uptake were performed in 6 week old, female, CD-1 IGS mice (Charles River Laboratories).
# For experiments measuring in vivo bioluminescent fatty acid uptake in skeletal muscle, ACTA1cre^+/− mice (Stock no. 006139) were bred with Rosa(stop)Luc^+/+ (Stock no. 005125)(Jackson Laboratory). Male offspring carrying the cre allele were injected retro-orbitally with 1 μg/kg body weight 12,13-diHOME in 0.1% BSA PBS or methyl acetate as a vehicle and all mice were co-injected with 2 μm FFA-SS-Luc (Intrace Medical). This dose is based on the circulating concentration of 12,13-diHOME in mice that are housed at room temperature, 3 ng/mL (10 nM). After an acute bout of exercise, 12,13-diHOME increased to 10-30 ng/mL (30-100 nM). This is considerably below the reported cytotoxic dose of 100 mg/kg body weight (Sisemore et al., 2001). Mice were anesthetized and imaged (IVIS Spectrum CT) using sequential 30 second exposures for 12 min.
# A major source of energy for the working skeletal muscles during exercise comes from the uptake and oxidation of fatty acids. […]
# [1] = Respiratory exchange ratio and energy expenditure by CLAMS in acutely treated mice; type: in vivo; conditions: wild-type mice, acute injection 1 μg/kg body weight i.v., CLAMS 4 h at room temperature, vs vehicle
# Procedure: (§2) For measurements of respiratory exchange ratio (RER) and energy expenditure, mice were placed in metabolic chambers and injected intravenously with 1 μg/kg body weight 12,13-diHOME in 0.1% BSA PBS or vehicle and then monitored in the Comprehensive Laboratory Animals Monitoring System (CLAMS) at room temperature (22° C.) for 4 h.
# A major source of energy for the working skeletal muscles during exercise comes from the uptake and oxidation of fatty acids. To determine whether 12,13-diHOME increases fatty acid uptake and oxidation in skeletal muscle in vivo, a mouse model. ACTA1Cre+/−Rosa(stop)Luc+/−mice, was generated that constitutively expressed a bioluminescent reporter in skeletal muscle. Mice were injected intravenously with FFA-SS-Luc, which is a fatty acid conjugated to luciferin (Henkin et al., 2012; Liao et al., 2005), in the presence of 12,13-diHOME or a vehicle control. […] These surprising in vivo data provided a potential physiological function for the exercise-induced increases in 12,13-diHOME.
# [2] = RER by CLAMS in exercise-trained iBAT- mice treated with 12,13-diHOME; type: in vivo; conditions: iBAT- mice exercise trained 3 weeks, acutely treated with 12,13-diHOME
# Procedure: For iBAT-mice, mice were anesthetized using isofluorane. iBAT was surgically removed and the artery immediately cauterized. Sham mice underwent the same surgical procedure, but iBAT was not removed.
# as §2
# Therefore, an analysis of sham and iBAT-mice was performed to determine whether increased 12,13-diHOME with training regulated fat utilization in vivo. Sham and iBAT-mice were sedentary or exercise trained for 3 weeks and subsequently, the RER was measured in metabolic cages. […] In contrast, there was no effect of exercise training on RER in the iBAT-mice.
# [3] = tested on: differentiated C2C12 cells; assay: 14C-palmitic acid uptake and oxidation in C2C12 cells; type: cell-based; conditions: 1.5 μM, 15 min, vs vehicle
# Procedure: (§3) Cells were housed at 37° C., 95% humidity and 5% CO2. C2C12 myoblasts (ATCC; passages 4-7) were maintained in DMEM containing 10% FBS and 1% penicillin/streptomycin. Differentiation was induced by incubating the cells in DMEM containing 2% horse serum and 1% penicillin/streptomycin for 4 days. 3T3-LI adipocytes (ATCC; passages 4-7) were maintained in DMEM containing 10% FBS and 1% penicillin/streptomycin. Differentiation was induced by incubating the cells in DMEM containing […] and 1% penicillin/streptomycin with 400 ng/mL dexamethasone, 1 μg/mL insulin, and 115 μg/mL IBMX for days 0-2, 1 μg/mL insulin for days 2-4, and DMEM with 10% FBS and 1% penicillin/streptomycin only days 4-8.
# (§4) mRNA levels of were measured by quantitative RT-PCR using primers (Table 4). Fatty acid uptake and oxidation into differentiated C2C12 muscle cells and 3T3L1 adipocytes measured using ^14C-labeled palmitic acid uptake and conversion of ^14C-labeled palmitic acid into CO2 as previously described (Townsend et al., 2013). Cells were treated with 1.5 μM 12,13-diHOME or methyl acetate vehicle for 15 min, similar to previous studies (Lynes et al., 2017). Oxygen consumption rates (OCR) were measured in starved (1 hour) C2C12 skeletal muscle cells treated with 1.5 μM 12,13-diHOME or methyl acetate vehicle for 15 min and OCR measured in 200 μM palmitate (Seahorse XF24) (Vernochet et al., 2012). […]
# 3T3-L1 cells [4] = assay: 14C-palmitic acid uptake and oxidation in 3T3-L1 cells; type: cell-based; conditions: 1.5 μM, 15 min, vs vehicle
# Procedure: as §3, §4
# C2C12 cells = assay: Oxygen consumption rate (Seahorse XF24) in C2C12 cells; type: cell-based; conditions: 1.5 μM, 15 min, 200 μM palmitate, vs vehicle
# Procedure: (§5) mRNA levels of were measured by quantitative RT-PCR using primers (Table 4). Fatty acid uptake and oxidation into differentiated C2C12 muscle cells and 3T3L1 adipocytes measured using ^14C-labeled palmitic acid uptake and conversion of ^14C-labeled palmitic acid into CO2 as previously described (Townsend et al., 2013). Cells were treated with 1.5 μM 12,13-diHOME or methyl acetate vehicle for 15 min, similar to previous studies (Lynes et al., 2017). Oxygen consumption rates (OCR) were measured in starved (1 hour) C2C12 skeletal muscle cells treated with 1.5 μM 12,13-diHOME or methyl acetate vehicle for 15 min and OCR measured in 200 μM palmitate (Seahorse XF24) (Vernochet et al., 2012).
# To determine if 12,13-diHOME regulated mitochondrial function in muscle, differentiated C2C12 myotubes were incubated with 12,13-diHOME and then analyzed for mitochondrial respiration. 12,13-diHOME incubation increased basal oxygen consumption rate (OCR) and respiratory capacity in C2C12 cells (FIGS. 4A and 4B).
# 3T3-L1 cells [5] = assay: Oxygen consumption rate in 3T3-L1 cells; type: cell-based; conditions: any condition (data not shown)
# [6] = tested on: mitochondrial and fatty acid oxidation genes; assay: Expression of mitochondrial and fatty acid genes in tissues after acute injection (qRT-PCR); conditions: mice injected in vivo
# Procedure: as §5
# To identify a mechanism for increased fat utilization with 12,13-diHOME in skeletal muscle, assays were performed to determine the effects of injecting mice with 12,13-diHOME in vivo on the expression of mitochondrial and fatty acid oxidation genes in tibialis anterior muscle. […] However, there was no effect of 12,13-diHOME on mitochondrial or fatty acid oxidation genes in scWAT, pgWAT, liver, or BAT (FIGS. 6D-6G). These findings were consistent with the data showing that 12,13-diHOME regulates fatty acid metabolism in skeletal muscle.
# [7] = tested on: differentiated C2C12 myotubes; assay: 3H-2-deoxyglucose uptake in C2C12 cells; type: cell-based; conditions: 1.5 mM, 15 min, vs vehicle
# Procedure: 2-deoxyglucose uptake in C2C12 cells was measured as previously described (Nedachi and Kanzaki, 2006). Briefly, differentiated C2C12 myotubes were serum starved for 3 h in DMEM before any treatment. Cells were incubated with 12,13-diHOME ([…]; 15 min) or insulin (100 nM; 15 min). After stimulation, cells were washed with buffer containing 140 mM NaCl, 20 mM Hepes-Na (pH 7.4), 5 mM KCl, 2.5 mM MgSO4, and 1.0 mM CaCl2. Glucose transport was determined by the addition of ^3H-2-deoxyglucose for glucose for 10 min on ice. Cells were washed with ice-cold saline solution and harvested in 0.05 N NaOH to determine net accumulation of [^3H]-2-deoxyglucose (Nedachi and Kanzaki, 2006).
# (§6) Glucose is an important fuel source utilized during exercise. Accordingly, assays were performed to determine whether 12,13-diHOME increased glucose uptake in skeletal muscle. […] To confirm these findings, isolated mouse soleus and extensor digitorum longus (EDL) skeletal muscles were incubated with either vehicle or 12,13-diHOME for 1 hour.
# isolated mouse soleus = assay: 3H-2-deoxyglucose uptake in isolated soleus muscle; conditions: 300 ng/mL, 1 hour, vs vehicle
# Procedure: as §1
# (§7) Isolated skeletal muscle glucose uptake was measured as previously described (Hayashi et al., 1998). Briefly, EDL or soleus muscles were dissected from 6 wk old female CD-1 mice, mounted, and incubated in Krebs-Ringer bicarbonate buffer (KRB) pH 7.4 containing 2 mM pyruvate for 60 min. Both EDL and soleus were incubated with vehicle or 300 ng/mL of 12,13-diHOME. Following treatment, glucose transport activity was measured for an additional 10 min.
# as §6
# [8] = tested on: isolated mouse extensor digitorum longus (EDL); assay: 3H-2-deoxyglucose uptake in isolated EDL muscle; conditions: 300 ng/mL, 1 hour, vs vehicle
# Procedure: as §1, §7, §6
# [9] = Sisemore et al., 2001; cited from earlier work
smiles,measurement,setting,value
"CCCCCC(O)C(O)C/C=C\CCCCCCCC(=O)O (stereo not drawn) [12,13-diHOME, 12,13-dihydroxy-9Z-octadecenoic acid]",fatty acid uptake in skeletal muscle (luciferase activity),"skeletal muscle; 1 μg/kg body weight injected with FFA-SS-Luc, vs vehicle",increased fatty acid uptake in skeletal muscle
same,time fatty acid uptake remained significantly elevated above vehicle,"skeletal muscle; 1 μg/kg body weight, after injection",10 min
same,energy expenditure,[1],independent of any change in energy expenditure
same,respiratory exchange ratio (RER),[1],decreased
same,RER,[2],significantly decreased
same,fatty acid oxidation (14C palmitic acid to CO2),[3],significant increase
same,fatty acid uptake (14C palmitic acid),[3],significant increase
same,fatty acid oxidation (14C palmitic acid to CO2),3T3-L1 cells [4],did not increase
same,fatty acid uptake (14C palmitic acid),3T3-L1 cells [4],did not increase
same,ATP turnover,C2C12 cells,did not affect
same,basal oxygen consumption rate (OCR),C2C12 cells,increased
same,maximal uncoupled respiration,C2C12 cells,did increase
same,respiratory capacity,C2C12 cells,increased
same,OCR,3T3-L1 cells [5],did not increase OCR under any condition
same,expression of mitochondrial or fatty acid oxidation genes,[6]; BAT,no effect
same,expression of mitochondrial and fatty acid genes,[6]; heart,increased expression of Nrf1 and Nrf2
same,expression of mitochondrial or fatty acid oxidation genes,[6]; liver,no effect
same,expression of mitochondrial or fatty acid oxidation genes,[6]; pgWAT,no effect
same,expression of mitochondrial or fatty acid oxidation genes,[6]; scWAT,no effect
same,expression of mitochondrial and fatty acid genes,[6]; tibialis anterior muscle,"increased expression of several genes involved in mitochondrial activity and biogenesis (citrate synthase, Nrf1, Nrf2), and fatty acid uptake (Cd36, Fatp4)"
same,glucose uptake (3H-2DG),[7],did not affect glucose uptake
same,rate of glucose uptake (3H-2DG),isolated mouse soleus,no effect
same,rate of glucose uptake (3H-2DG),[8],no effect
same,reported cytotoxic dose,[9],100 mg/kg body weight
